According to patent US5374623A, “Cysteine protease inhibitors effective for in vivo use” (Prototek, Inc., priority 1992, dated 1994):
Values belong to the compound of their own block, whether it stands above or below them.

Tests used:
[1] = biological target: T1, Cathepsin B purified from human liver (Homo sapiens, UniProt P07858); assay: Cathepsin B inhibition, potency relative to Z-Phe-Ala-CH2 F; assay type: biochemical; conditions: substrate Z-Leu-Arg-Arg-AFC, pH 6.2, inhibitor added 2 min before substrate
T1 construct: Cathepsin B. purified from human liver; purchased Enzyme Systems Products (Dublin, Calif.); host or cells: human liver (tissue-purified)
Description: Cathepsin B. purified from human liver, was obtained from Enzyme Systems Products (Dublin, Calif.). The activity of the enzyme used in this Example was 50 mU per ml at 30° C. in 50 mm sodium phosphate buffer, pH 6.2, 5 mm DTT, 2 mm EDTA, with Z-Leu-Arg-Arg-7-amino-4-trifluoromethyl courmarin (Z-Leu-Arg-Arg-AFC) as substrate.
Cathepsin B assays were done under the following conditions: Five μl of enzyme stock solution was preincubated with 435 μl of phosphate buffer for 30 minutes to activate the enzyme. Nine μl of 20 mm stock substrate solution (in dimethylformamide) were added and mixed with the activated enzyme. Activity was followed by the release of free AFC as monitored by a Perkin-Elmer LS-5B spectrofluorometer (excitation=400 nm, emission=505 nm).
The inhibitors described herein were prepared in 20 mm stock solutions in DMF. Five μl aliquots of each inhibitor were added to the enzyme 2 min before the substrate was added to the mix. Potency was determined relative to the activity of a standard cathepsin B inhibitor, Z-Phe-Ala-CH2 F (relative potency of 1.0).

bone resorption = assay: In vivo bone resorption by urinary 14C-tetracycline excretion in rats
Description: Treatment of Osteo Arthritis with Mu-Phe-HPhe-O-Ph. The skeletons of young growing rats were radioactively labelled by injections with ^14 C-tetracycline over a 10 day period. The amount of bone resorption was then determined each day as the amount of radioactivity excreted in the urine. After 10 days of control excretion, test compounds were administered for three days subcutaneously and their effects on the daily excretion of tetracycline were determined. Tested compounds were dissolved in DMSO/PEG at a concentration of 25 mg/ml and were injected once per day subcutaneously in a volume of 2 ml/kg. Treatment of Osteo Arthritis with Mu-Leu-HPhe-O-Ph. The skeletons of young growing rats were radioactively labelled by injections with ^14 C-tetracycline over a 10 day period. The amount of bone resorption was then determined each day as the amount of radioactivity excreted in the urine. After 10 days of control excretion, test compounds were administered for three days subcutaneously and their effects on the daily excretion of tetracycline were determined. Tested compounds were dissolved in DMSO/PEG at a concentration of 25 mg/ml and were injected once per day subcutaneously in a volume of 2 ml/kg.

[2] = system: 45Ca2+-labelled bones (calvaria) of neonatal mice; assay: Parathyroid hormone-stimulated 45Ca2+ release from cultured mouse calvaria; assay type: cell-based; conditions: for inhibition of the rate of 45Ca2+-release: 1 μm inhibitor; for inhibition of the rate of 45Ca2+-release / additional inhibition of the rate of 45Ca2+-release: 24 hour period, PTH-stimulated; for additional inhibition of the rate of 45Ca2+-release: 100 μm inhibitor
Description: (§1) Treatment of Osteo Arthritis with Mu-Phe-HPhe-O-Ph. ^45 Ca^2+ -labelled bones (calvaria) of neonatal mice were maintained in culture. The effect of the test compound on the rate of parathyroid hormone-stimulated ^45 Ca^2+ release was measured over a 24 hour period. An inhibitor of bone resorption (at maximal concentrations) would be expected to inhibit this rate by approximately 70%. The nature of the residual, uninhibitable ^45 Ca^2+ -release is not known but could represent chemical exchange of ^45 Ca^2+ with the medium. Mu-Phe-HPhe-O-Ph was dissolved in dimethylsulphoxide which was present in the incubation at concentrations <0.1%.
as §1, with “Mu-Leu-HPhe-O-Ph.” for “Mu-Phe-HPhe-O-Ph.”, “Mu-Leu-HPhe-O-Ph” for “Mu-Phe-HPhe-O-Ph”
as §1, with “Mu-Tyr(OMe)-HPhe-O-Ph.” for “Mu-Phe-HPhe-O-Ph.”, “Mu-Tyr(OMe)-HPhe-O-Ph” for “Mu-Phe-HPhe-O-Ph”
as §1, with “Z-Phe-Ala-O-Ph.” for “Mu-Phe-HPhe-O-Ph.”, “Z-Phe-Ala-O-Ph” for “Mu-Phe-HPhe-O-Ph”
as §1, with “Mu-Tyr(OMe)-HPhe-O-Ph.” for “Mu-Phe-HPhe-O-Ph.”, “labelled” for “-labelled”, “Mu-Tyr(OMe)-HPhe-O-Ph” for “Mu-Phe-HPhe-O-Ph”

[3] = biological target: Soluble extracts of P. falciparum (cysteine proteinase); assay: Proteolytic activity of P. falciparum soluble extracts, substrate Z-Phe-Arg-AFC; assay type: biochemical; conditions: read-out: IC50, proteolytic activity of P. falciparum extract
Description: Soluble extracts of P. falciparum and P. vinckei were prepared and proteolytic activity was assayed with fluorogenic peptide substrate Z-Phe-Arg-AFC. […] The concentrations at which activity was inhibited by 50% (IC50) was calculated.
Soluble extracts of P. falciparum and P. vinckei were prepared and proteolytic activity was assayed with fluorogenic peptide substrate Z-Phe-Arg-AFC. […] The concentration at which activity was inhibited by 50%. (IC50) was calculated.
Soluble extracts of P. falciparum and P. vinckei were prepared and proteolytic activity was assayed with fluorogenic peptide substrate Z-Phe-Arg-AFC. […] The concentration at which activity was inhibited by 50% (IC50) was calculated.
The concentration at which activity was inhibited by 50% (IC50) was calculated.

[4] = system: Soluble extracts of P. vinckei; assay: Proteolytic activity of P. vinckei soluble extracts, substrate Z-Phe-Arg-AFC; assay type: biochemical; conditions: read-out: IC50, proteolytic activity of P. vinckei extract
Description: (§2) Treatment of Malaria with Mu-Phe-HPhe-O-Ph. Soluble extracts of P. falciparum and P. vinckei were prepared and proteolytic activity was assayed with fluorogenic peptide substrate Z-Phe-Arg-AFC. The activity of control samples was compared with activities in the presence of multiple concentrations of Mu-Phe-HPhe-O-Ph. The concentrations at which activity was inhibited by 50% (IC50) was calculated.
as §2, with “with Mu-Leu-HPhe-O-Ph.” for “with Mu-Phe-HPhe-O-Ph.”, “of Mu-Leu-HPhe-O-Phe.” for “of Mu-Phe-HPhe-O-Ph.”, “The concentration” for “The concentrations”, “by 50%.” for “by 50%”
as §2, with “with Mu-Phe-Arg(NO2)-O-Ph.” for “with Mu-Phe-HPhe-O-Ph.”, “of Mu-Phe-Arg(NO2)-O-Ph.” for “of Mu-Phe-HPhe-O-Ph.”, “The concentration” for “The concentrations”
as §2, with “with Mu-Tyr(OCH3)2 -HPhe-O-Ph.” for “with Mu-Phe-HPhe-O-Ph.”, “samples as” for “samples was”, “of Mu-Tyr(OCH3)2 -HPhe-O-Ph.” for “of Mu-Phe-HPhe-O-Ph.”, “The concentration” for “The concentrations”

[5] = system: adjuvant-induced arthritis; assay: Adjuvant-induced arthritis in rats, compound in ground diet (Example 15); assay type: in vivo; conditions: day 0 to day 32
Description: Treatment of Rheumatoid Arthritis with Mu-Tyr(OMe)-HPhe-O-Ph. Rats were injected with adjuvant on day 0 and were treated with Mu-Tyr(OMe)-HPhe-O-Ph in ground diet from the time of adjuvant injection until sacrifice at day 32. Over the course of the disease, animals were evaluated in terms of a mean clinical score, a derived series of clinically observed parameters normalized to facilitate graphical presentation. Mean paw volumes were also measured using normalized units throughout the course of the disease. At the end of the study, the animal groups were sacrificed and evaluated by X-ray analysis.

relative potency of cathepsin B inhibition (Z-Phe-Ala-CH2 F = 1.0) [1]: 0.2
Compound: COC(=O)c1ccccc1OCC(=O)C(C)(C)NC(=O)C(Cc1ccccc1)NC(=O)N1CCOCC1 (stereo not shown) [Example 9, Morpholine carbonyl phenylalanyl 2-aminoisobutyric methyl phenoxy ketone]

IC50 ([2]; initial phase of inhibition, read-out: IC50 for inhibition of resorption in mouse calvaria): ~40 nM
Compound: COc1ccc(C[C@H](NC(=O)N2CCOCC2)C(=O)N[C@@H](CCc2ccccc2)C(=O)COc2ccccc2)cc1 [Mu-Tyr(OMe)-HPhe-O-Ph]
mean clinical scores vs untreated animals [5]: significantly lower
mean paw volumes vs untreated animals [5]: significantly reduced
inhibition of the rate of 45Ca2+-release [2]: 50%
additional inhibition of the rate of 45Ca2+-release [2]: 20%

relative potency of cathepsin B inhibition (Z-Phe-Ala-CH2 F = 1.0) [1]: 1.0
Compound: C[C@H](NC(=O)[C@H](Cc1ccccc1)NC(=O)OCc1ccccc1)C(=O)CF [Z-Phe-Ala-CH2 F, reference compound]

Continued, compound first:

Compound: CC(C)C[C@H](NC(=O)N1CCOCC1)C(=O)N[C@@H](CCc1ccccc1)C(=O)COc1ccccc1 [Mu-Leu-HPhe-O-Ph]
inhibition of bone resorption in vivo as measured by tetracycline excretion (bone resorption; subcutaneous once per day for three days, 25 mg/ml in DMSO/PEG, 2 ml/kg): nearly as great as that of a maximal dose of calcitonin
time of maximum effect after dosing commenced (bone resorption; subcutaneous once per day, 25 mg/ml, 2 ml/kg): 24 h
findings at the sites of injection at end of experiment (bone resorption; subcutaneous, DMSO/PEG, three days, histology: inflammation of subcutaneous fat, tissue necrosis): lesions were visible at the sites of injection
inhibition of the rate of 45Ca2+-release [2]: 50%
additional inhibition of the rate of 45Ca2+-release [2]: 20%
IC50 [3]: 0.42 nM
IC50 [4]: 15 nM

Compound: NC(=NCCCC(NC(=O)C(Cc1ccccc1)NC(=O)N1CCOCC1)C(=O)COc1ccccc1)N[N+](=O)[O-] (stereo not shown) [Mu-Phe-Arg(NO2)-O-Ph]
IC50 [3]: 2.4 nM
IC50 [4]: 110 nM

Compound: CC(NC(=O)C(Cc1ccccc1)NC(=O)OCc1ccccc1)C(=O)COc1ccccc1 (stereo not drawn) [Z-Phe-Ala-O-Ph]
inhibition of the rate of 45Ca2+-release [2]: 50%
additional inhibition of the rate of 45Ca2+-release [2]: 20%

Compound: t-Butyl carbamyl-L-arginyl-(2-Carboxymethyl) phenoxymethyl ketone [Example 3]
relative potency of cathepsin B inhibition (Z-Phe-Ala-CH2 F = 1.0) [1]: five
